PMC5725832, “Evaluation of the effect of D-amino acid incorporation into amyloid-reactive peptides” (Journal of Translational Medicine, 2017)

How the values were obtained:
[1] = Circular dichroism, heparin-induced coil-to-helix transition (ellipticity at 222 nm); type: physicochemical; details: CD, peptide 0.05 mg/mL, 2.9 mL sample, 1 cm path; titration of low molecular weight heparin (enoxaparin) up to 1.5 mg; data collected in triplicate
Procedure: CD spectra were obtained for all peptides (0.05 mg/mL in PBS) using a DSM 1000 CD instrument (Olis Inc., Bogart, Georgia) with a peptide sample volume of 2.9 mL and a 1 cm cuvette path length. Data were collected in triplicate over the 190–250 nm wavelength range with 1 nm increments. Increasing amounts of low molecular weight heparin (Enoxaparin sodium, Sanofi, Bridgewater, NJ) up to 1.5 mg was added to each peptide to induce secondary structure transitions. All data were corrected for background by subtraction of a PBS or PBS with enoxaparin CD spectrum. Mean residue ellipticity [Θ] was calculated according to: Θ *(MW/no. AA)/(10 *conc. *l) where: Θ is ellipticity (millidegrees); MW is the molecular weight of the peptide (3356.8 Da); no. AA, is the number of amino acid residues, (31); conc. is the peptide concentration (mg/mL), and l, is the cuvette path length (cm).

[2] = mouse, in vivo, iv
Procedure: Peptides (20–40 μg) were radiolabeled with iodine-125 (^125I; Perkin Elmer, Waltham, MA) as previously described. Briefly, ~ 2 mCi of ^125I in buffered sodium phosphate pH 7.6 was mixed with peptide and 20 μg chloramine T in a volume of 10 µL water for 1 min. The reaction was quenched using 20 μg sodium metabisulphite in 10 µL water. Radiolabeled product was separated from free isotope by gel filtration chromatography using a Sephadex G-25 size-exclusion matrix (PD10; GE Healthcare) equilibrated with 0.1% gelatin/PBS. Fractions were collected manually and radioactivity in each measured by gamma counting after which the peak fractions were pooled. Radiochemical purity was assessed qualitatively by estimating the free radioiodide from phosphor images (Cyclone Storage Phosphor System, PerkinElmer, Shelton, CT) of SDS-PAGE gels. SPECT/CT imaging was performed as described previously. […] Low energy (^125I; 25–45 keV) gamma photons were detected at each of 60, 16-s projections with 90 mm of bed travel in 1.5 revolutions. […] A small piece of each tissue was weighed in tared vials and radioactivity quantified using an automated gamma counter (1480 Wizard 3 Gamma Counter, Perkin Elmer). The tissue radioactivity data were expressed as % injected dose per gram of tissue (%ID/g). […]

Substance: aqaYS KAQKAQAKQAKQAQKAQKAQAKQAKQ [^aqap5, 31-residue p5 variant with three D-amino acids at the N-terminus; tested 125I-labeled in vivo]
- half maximal value of the heparin-mediated transition in mean residue ellipticity at 222 nm [1]: 0.33 mg
- radioactivity in the kidneys [2]: ~ 39 %ID/g
